Where a SMILES comes first, the peptide text is derived from it. [ ]: non-standard residue; d: D form. The star is where a group is joined. Bip(2'-Et,4'-O(CH2)4NH2) = CCc1cc(OCCCCN)ccc1-c1ccc(C[C@H](N)C(=O)O)cc1; Malonyl(2,2-Me2,histaminyl) = CC(C)(C(=O)NCCc1cnc[nH]1)C(=O)*; Nva(5-(3,5-Me2Ph)) = Cc1cc(C)cc(CCC[C@H](N)C(=O)O)c1; Ala(1H-tetrazol-5-yl) = N[C@@H](Cc1nnn[nH]1)C(=O)O; αMePhe(2-F) = C[C@](N)(Cc1ccccc1F)C(=O)O
Key:
[1] = test system: HEK293/CRE-Luc cells; assay: cAMP responsive luciferase reporter assay, HEK293/CRE-Luc cells (no hGLP1R expression); type: cell-based, human
Description: (§1) To test the activity of GLP1R agonist payloads, GLP1R agonist linker-payloads (LPs), and anti-GLP1R antibody tethered drug conjugates (ATDCs) of the disclosure, a cell-based cAMP responsive luciferase reporter assay was developed. To generate the assay cell line, the firefly luciferase gene was placed under the control of a cAMP response element (CRE) located upstream of a minimal promoter and transfected into HEK293 cells and referred to herein as HEK293/CRE-Luc cells.
(§2) Three-fold serial dilutions of free payloads or LPs were prepared in 100% DMSO, transferred to fresh assay media, and added to the cells at a final constant DMSO concentration of 0.2%. The last well in the plate served as a blank control containing only the assay media and 0.2% DMSO (untreated well) and was plotted as a continuation of the 3-fold serial dilution. Four to six hours later, luciferase activity was determined after the addition of One-Glo™ reagent (Promega, Cat #E6130) to each well. Relative light units (RLUs) were measured on an Envision luminometer (PerkinElmer) and EC50 values were determined using a four-parameter logistic equation over a 12-point dose response curve (GraphPad Prism). The signal to noise (S/N) was determined by taking the ratio of the highest RLU on the dose response curve to the RLU in the untreated wells.

[2] = Plasma stability of payloads and linker-payloads, human plasma; type: in vitro ADME; details: for half-life at 2 µM: human, pooled plasma, pH 7.4, payload properties table, species not given, read-out: Plasma stability t½ (converted)
Procedure: The plasma stability of payloads and linker payloads of the disclosure were measured. For the assay, pooled frozen plasma (human, mouse or monkey) was thawed in cold water or a 37° C. water bath prior to experiment. Plasma was centrifuged at 4000 rpm for 5 min if any clots were observed, they were subsequently removed. If required, the pH was adjusted to 7.4±0.1. For the preparation of compounds and positive controls, a 1 mM intermediate solution was prepared by diluting 10 μL of their stock solution with 90 μL DMSO; a 1 mM intermediate solution of the positive control (Propantheline) was prepared by diluting 10 μL of its stock solution with 90 μL ultrapure water. […] 98 μL of plasma was spiked with 2 μL of dosing solution (100 μM) to achieve the final concentration of 2 μM in duplicate. Samples were then incubated at 37° C. in a water bath. […] At each time point, 400 μL of stop solution (200 ng/mL tolbutamide plus 200 ng/mL labetalol in 50% ACN/MeOH) was added to precipitate protein and mixed thoroughly. Sample plates were then centrifuged at 4,000 rpm for 10 min. An aliquot of supernatant (50 μL) was transferred from each well and mixed with 100 μL ultra-pure water. The samples were then shaken at 800 rpm for approximately 10 min before submitting for LC-MS/MS analysis.

[3] = target: T1, human GLP1R (Homo sapiens (Human), UniProt P43220); assay: cAMP responsive luciferase reporter assay, HEK293/CRE-Luc/hGLP1R cells; type: cell-based; details: for HEK293/CRE-LUC/hGLP1R S/N: highest RLU / RLU of untreated wells; for HEK293/CRE-LUC/hGLP1R Relative Potency (% P8 EC50) / HEK293/CRE-LUC/hGLP1R Relative Signal:Noise (% P8): relative to P8 of the same experiment
Description: as §1, §2
GLP1R agonist linker payloads were conjugated to anti-hGLP1R antibodies via N-terminal heavy or light chain Q tags. Several resulting anti-GLP1R antibody tethered drug conjugates (ATDCs) were tested for activity in the HEK293/CRE-Luc/hGLP1R reporter assay as described above for the free GLP1R payload and linker-payload agonists.

[4] = target: T1, human GLP1R; assay: Human GLP1R cAMP accumulation assay (HEK293 cells over-expressing human GLP-1R); type: cell-based; details: HEK293/hGLP1R cells, 30 min
Procedure: The functional activity of the test compounds for agonizing GLP1R were evaluated using a cell-based assay. For the assay, HEK293 cells over-expressing full length human GLP-1R were utilized and the downstream cAMP accumulation was assessed as a measure of human GLP-1R stimulation. […] Diluted compounds were transferred to OptiPlates (100 nL/well) using an Echo liquid handler. HEK293/hGLP1R cells were thawed in 37° C. water-bath, washed 2 times with HBSS and re-suspended in assay buffer (HBSS+5 mM HEPES+500 μM IBMX+0.1% BSA). […] After centrifugation, the assay plate was incubated at 23° C. for 30 min. The reaction was terminated by adding 10 μL of lysis buffer containing D2-cAMP and a cAMP-antibody from the cyclic AMP immunoassay kit (Cisbio, Cat #62AM4PEJ). […] The levels of cAMP per well were calculated using a standard curve generated by GraphPad Prism. […] EC50 values were fitted from a four-parameter logistic equation over a 10-point response curve (GraphPad Prism).

[5] = target: human glucagon-like peptide 2 receptor (GLP2R) (Homo sapiens (Human), UniProt O95838); assay: CRE-luciferase reporter bioassay, HEK293/Myc-hGLP2R/Cre-Luc cell line; type: cell-based; details: HEK293/Myc-hGLP2R/Cre-Luc
human glucagon-like peptide 2 receptor (GLP2R), sequence (O95838 whole entry): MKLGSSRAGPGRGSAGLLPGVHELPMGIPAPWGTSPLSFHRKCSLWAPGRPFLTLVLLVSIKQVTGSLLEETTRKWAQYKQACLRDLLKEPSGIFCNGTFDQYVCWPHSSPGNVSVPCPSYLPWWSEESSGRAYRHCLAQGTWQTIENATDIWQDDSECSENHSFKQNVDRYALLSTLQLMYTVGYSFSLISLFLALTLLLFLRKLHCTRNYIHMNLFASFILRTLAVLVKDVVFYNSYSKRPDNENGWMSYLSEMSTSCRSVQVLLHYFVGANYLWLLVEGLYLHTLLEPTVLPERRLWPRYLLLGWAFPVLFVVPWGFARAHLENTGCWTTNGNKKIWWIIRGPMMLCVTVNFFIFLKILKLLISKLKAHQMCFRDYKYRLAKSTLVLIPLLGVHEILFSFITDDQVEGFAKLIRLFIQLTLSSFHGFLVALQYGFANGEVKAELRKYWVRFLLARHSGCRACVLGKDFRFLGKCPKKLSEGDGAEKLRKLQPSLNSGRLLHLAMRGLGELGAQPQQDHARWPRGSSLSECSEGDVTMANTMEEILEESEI
Procedure: Cells were incubated overnight at 37° C. in 5% CO2. […] Plates were incubated for 5.5 h at 37° C. in 5% CO2. For end-point measurement, 100 μL/well of One-Glo reagent (Promega, #E6051) was added and plates were kept at room temperature for 5-10 minutes. Luciferase activity was measured on Envision Multilabel Plate Reader (Perkin Elmer) in Luminescent mode. The relative light units (RLU) values were obtained and the results were analyzed using nonlinear regression with GraphPad Prism software (GraphPad).

T1 sequence (P43220 24-463): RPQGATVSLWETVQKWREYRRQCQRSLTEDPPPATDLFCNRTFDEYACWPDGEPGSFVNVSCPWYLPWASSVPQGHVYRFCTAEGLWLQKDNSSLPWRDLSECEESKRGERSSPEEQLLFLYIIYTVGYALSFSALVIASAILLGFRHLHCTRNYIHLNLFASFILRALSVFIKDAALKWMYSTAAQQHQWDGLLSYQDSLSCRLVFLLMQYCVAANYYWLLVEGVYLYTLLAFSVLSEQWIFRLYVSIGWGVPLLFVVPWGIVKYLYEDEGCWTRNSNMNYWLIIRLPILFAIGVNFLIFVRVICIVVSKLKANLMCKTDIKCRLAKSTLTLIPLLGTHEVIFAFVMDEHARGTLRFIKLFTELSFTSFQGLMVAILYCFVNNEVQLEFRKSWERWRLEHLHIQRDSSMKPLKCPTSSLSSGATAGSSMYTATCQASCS

Q: Which EC50 [1] does the source give for `CCc1cc(OCCCCN)ccc1-c1ccc(C[C@H](NC(=O)[C@H](CC(=O)O)NC(=O)[C@H](CO)NC(=O)[C@@H](NC(=O)[C@](C)(Cc2ccccc2F)NC(=O)[C@@H](NC(=O)CNC(=O)[C@H](Cc2nn[nH]n2)NC(=O)C(C)(C)C(=O)NCCc2cnc[nH]2)[C@@H](C)O)[C@@H](C)O)C(=O)N[C@@H](CCCc2cc(C)cc(C)c2)C(N)=O)cc1` [P9, (8S,14S,17S,20S,23S,26S)-8-((2H-tetrazol-5-yl)methyl)-26-(((S)-1-(((S)-1-amino-5-(3,5-dimethylphenyl)-1-oxopentan-2-yl)amino)-3-(4′-(4-aminobutoxy)-2′-ethyl-[1,1′-biphenyl]-4-yl)-1-oxopropan-2-yl)carbamoyl)-17-(2-fluorobenzyl)-14,20-bis((R)-1-hydroxyethyl)-23-(hydroxymethyl)-1-(1H-imidazol-5-yl)-5,5,17-trimethyl-4,6,9,12,15,18,21,24-octaoxo-3,7,10,13, 16,19,22,25-octaazaoctacosan-28-oic acid] ({Malonyl(2,2-Me2,histaminyl)}-[Ala(1H-tetrazol-5-yl)]GT[αMePhe(2-F)]TSD[Bip(2'-Et,4'-O(CH2)4NH2)][Nva(5-(3,5-Me2Ph))]-NH2) here?
A: > 200 nM

Q: And the “HEK293/CRE-LUC S/N” value [1]?
A: 1.3

Q: And the “Human plasma stability assay T½” value ([2]; tested for 1 day (A))?
A: >57.81 h

Q: What about the half-life at 2 µM [2] of the same molecule?
A: > 57.8 h

Q: What about the “HEK293/CRE-LUC/hGLP1R S/N” value [3] of the same molecule?
A: 75.2

Q: What about the “HEK293/CRE-LUC/hGLP1R Relative Potency (% P8 EC50)” value [3] of the same molecule?
A: 133.8%

Q: What about the “HEK293/CRE-LUC/hGLP1R Relative Signal:Noise (% P8)” value [3] of the same molecule?
A: 114.3%

Q: For `CCc1cc(OCCCCNC(=O)CNC(=O)CNC(=O)CNC(=O)CNC(=O)[C@H](CO[C@@H]2OC(CO)[C@@H](O)[C@H](O)C2O)NC(=O)CCNC(=O)OC[C@@H]2[C@@H]3CCC#CCC[C@@H]32)ccc1-c1ccc(C[C@H](NC(=O)[C@H](CC(=O)O)NC(=O)[C@H](CO)NC(=O)[C@@H](NC(=O)[C@](C)(Cc2ccccc2F)NC(=O)[C@@H](NC(=O)CNC(=O)[C@H](Cc2nn[nH]n2)NC(=O)C(C)(C)C(=O)NCCc2cnc[nH]2)[C@@H](C)O)[C@@H](C)O)C(=O)N[C@@H](CCCc2cc(C)cc(C)c2)C(N)=O)cc1` (stereo partly shown) [LP18, BCN-NHC2H4CO-(glucose) SG4-P9], which EC50 [4] is on record?
A: 0.458 nM

Q: Which results are given for `CCc1cc(OCCCCN)ccc1-c1ccc(C[C@H](NC(=O)[C@H](CC(=O)O)NC(=O)[C@H](CO)NC(=O)[C@@H](NC(=O)[C@](C)(Cc2ccccc2F)NC(=O)[C@@H](NC(=O)CNC(=O)[C@H](Cc2nn[nH]n2)NC(=O)[C@H](C)NC(=O)[C@@H](N)Cc2cnc[nH]2)[C@@H](C)O)[C@@H](C)O)C(=O)N[C@@H](CCCc2cc(C)cc(C)c2)C(N)=O)cc1` [P10] (H-HA[Ala(1H-tetrazol-5-yl)]GT[αMePhe(2-F)]TSD[Bip(2'-Et,4'-O(CH2)4NH2)][Nva(5-(3,5-Me2Ph))]-NH2)?
A: EC50 [1]: > 200 nM; HEK293/CRE-LUC S/N [1]: 1.2; Human plasma stability assay T½ ([2]; tested for 2 hrs (B)): 1.83 h; half-life at 2 µM [2]: 1.8 h; HEK293/CRE-LUC/hGLP1R S/N [3]: 45.1; HEK293/CRE-LUC/hGLP1R Relative Potency (% P8 EC50) [3]: 38.0%; HEK293/CRE-LUC/hGLP1R Relative Signal:Noise (% P8) [3]: 68.6%

Q: With `CC[C@H](C)[C@H](NC(=O)[C@H](Cc1ccccc1)NC(=O)[C@H](CC(=O)O)NC(=O)[C@H](CCCNC(=N)N)NC(=O)[C@H](C)NC(=O)[C@H](C)NC(=O)[C@H](CC(C)C)NC(=O)[C@H](CC(N)=O)NC(=O)[C@H](CC(=O)O)NC(=O)[C@H](CC(C)C)NC(=O)[C@@H](NC(=O)[C@@H](NC(=O)[C@H](CC(N)=O)NC(=O)[C@H](CCSC)NC(=O)[C@H](CCC(=O)O)NC(=O)[C@H](CC(=O)O)NC(=O)[C@H](CO)NC(=O)[C@H](Cc1ccccc1)NC(=O)[C@H](CO)NC(=O)CNC(=O)[C@H](CC(=O)O)NC(=O)[C@H](C)NC(=O)[C@@H](N)Cc1c[nH]cn1)[C@@H](C)O)[C@@H](C)CC)C(=O)N[C@@H](CC(N)=O)C(=O)N[C@@H](Cc1c[nH]c2ccccc12)C(=O)N[C@@H](CC(C)C)C(=O)N[C@H](C(=O)N[C@@H](CCC(N)=O)C(=O)N[C@H](C(=O)N[C@@H](CCCCN)C(=O)N[C@H](C(=O)N[C@H](C(=O)N[C@@H](CC(=O)O)C(=O)O)[C@@H](C)O)[C@@H](C)CC)[C@@H](C)O)[C@@H](C)CC` [GLP2, reference compound] as the molecule, how does the CRE-dependent reporter activity [5] read?
A: activated individual cell lines as expected

From patent publication US20250161476A1 (REGENERON PHARMACEUTICALS, INC., priority 2020, published 2025)
